Laboratory results taken from PubChem BioAssay AID2060511 (Molecular Pharmacology Branch, DTP, NCI, 2025).

Test system: 422866-222-R5-J1-PDC spheroids with HUVEC/MSC, viability
Assay: Anticancer human tumor 422866-222-R5-J1-PDC patient-derived pancreatic adenocarcinoma cell line growth inhibition [GQUAD]
Conditions: for IC50: curve of first compound; for viability, T/C: stronger effect = lower value
Procedure, shortened: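 Multi-cell-type spheroids of tumor cells with HUVEC and mesenchymal stem cells, treated with drug combinations. Concentrations descend in half-log steps from near clinical Cmax, or from 10 microM where Cmax is unknown; viability read-out.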

[1] = second compound 0.0316 µM, first compound 0.0316 µM
[2] = second compound 0.0316 µM, first compound 0.1 µM
[3] = second compound 0.0316 µM, first compound 0.316 µM
[4] = second compound 0.0316 µM, first compound 1 µM
[5] = second compound 0.0316 µM, first compound 3.16 µM
[6] = second compound 0.0316 µM, first compound 10 µM
[7] = second compound 0.1 µM, first compound 0.0316 µM
[8] = second compound 0.1 µM, first compound 0.1 µM
[9] = second compound 0.1 µM, first compound 0.316 µM
[10] = second compound 0.1 µM, first compound 1 µM
[11] = second compound 0.1 µM, first compound 3.16 µM
[12] = second compound 0.1 µM, first compound 10 µM
[13] = second compound 0.316 µM, first compound 0.0316 µM
[14] = second compound 0.316 µM, first compound 0.1 µM
[15] = second compound 0.316 µM, first compound 0.316 µM
[16] = second compound 0.316 µM, first compound 1 µM
[17] = second compound 0.316 µM, first compound 3.16 µM
[18] = second compound 0.316 µM, first compound 10 µM
[19] = second compound 1 µM, first compound 0.0316 µM
[20] = second compound 1 µM, first compound 0.1 µM
[21] = second compound 1 µM, first compound 0.316 µM
[22] = second compound 1 µM, first compound 1 µM
[23] = second compound 1 µM, first compound 3.16 µM
[24] = second compound 1 µM, first compound 10 µM
[25] = second compound 3.16 µM, first compound 0.0316 µM
[26] = second compound 3.16 µM, first compound 0.1 µM
[27] = second compound 3.16 µM, first compound 0.316 µM
[28] = second compound 3.16 µM, first compound 1 µM
[29] = second compound 3.16 µM, first compound 3.16 µM
[30] = second compound 3.16 µM, first compound 10 µM
[31] = second compound 10 µM, first compound 0.0316 µM
[32] = second compound 10 µM, first compound 0.1 µM
[33] = second compound 10 µM, first compound 0.316 µM
[34] = second compound 10 µM, first compound 1 µM
[35] = second compound 10 µM, first compound 3.16 µM
[36] = second compound 10 µM, first compound 10 µM
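Also: spheroids exposed to compounds for seven days before reading.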
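For viability, T/C in this document: percent viability relative to DMSO vehicle control taken as 100%.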

For `CC(=O)O[C@H]1C(=O)[C@@]2(C)[C@H]([C@H](OC(=O)c3ccccc3)[C@]3(O)C[C@H](OC(=O)[C@H](O)[C@@H](NC(=O)c4ccccc4)c4ccccc4)C(C)=C1C3(C)C)[C@]1(OC(C)=O)CO[C@@H]1C[C@@H]2O` + Cc1[nH]c2ccc(F)cc2c1-c1nc2c3cccnc3c3ncccc3c2[nH]1, the IC50 (second compound 0.0316 µM) was 671 nM, the IC50 (second compound 0.1 µM) was 1300 nM and the IC50 (second compound 0.316 µM) was 2040 nM. It also gave an IC50 (second compound 1 µM) of 1720 nM, an IC50 (second compound 3.16 µM) of 2160 nM and an IC50 (second compound 10 µM) of 2040 nM. For the same molecule, the viability, T/C [1] was 143%, the viability, T/C [2] was 143% and the viability, T/C [3] was 74.7%. For the same molecule, the viability, T/C [4] was 39%, the viability, T/C [5] was 44.4% and the viability, T/C [6] was 1.31%. For the same molecule, the viability, T/C [7] was 109%, the viability, T/C [8] was 128% and the viability, T/C [9] was 100%. The viability, T/C [10] was 48.5%, the viability, T/C [11] was 37.1% and the viability, T/C [12] was 2.15%. It also gave a viability, T/C [13] of 122%, a viability, T/C [14] of 107% and a viability, T/C [15] of 99.5%. For the same molecule, the viability, T/C [16] was 55.3%, the viability, T/C [17] was 46.9% and the viability, T/C [18] was 3.01%. It also gave a viability, T/C [19] of 117%, a viability, T/C [20] of 115% and a viability, T/C [21] of 98.5%. It also gave a viability, T/C [22] of 53.4%, a viability, T/C [23] of 42% and a viability, T/C [24] of 2.03%. The viability, T/C [25] was 70.5%, the viability, T/C [26] was 75% and the viability, T/C [27] was 95%. For the same molecule, the viability, T/C [28] was 43.4%, the viability, T/C [29] was 50% and the viability, T/C [30] was 3.32%. For the same molecule, the viability, T/C [31] was 56.1%, the viability, T/C [32] was 62% and the viability, T/C [33] was 58.2%. It also gave a viability, T/C [34] of 46.6%, a viability, T/C [35] of 49.7% and a viability, T/C [36] of 4.03%.
`C#Cc1c(F)ccc2cc(O)cc(-c3ncc4c(N5CC6CCC(C5)N6)nc(OCC56CCCN5CC(F)C6)nc4c3F)c12` (centres undefined) + CN(C)c1ccc(Nc2c3ccc(NC(=O)CCN4CCCC4)cc3nc3cc(NC(=O)CCN4CCCC4)ccc23)cc1 was tested, and the IC50 (second compound 0.0316 µM) was 1130 nM, the IC50 (second compound 0.1 µM) was 1250 nM and the IC50 (second compound 0.316 µM) was 1190 nM. For the same molecule, the IC50 (second compound 1 µM) was 1110 nM, the IC50 (second compound 3.16 µM) was 919 nM and the IC50 (second compound 10 µM) was 1590 nM. It also gave a viability, T/C [1] of 97.9%, a viability, T/C [2] of 91.8% and a viability, T/C [3] of 87.2%. For the same molecule, the viability, T/C [4] was 50.8%, the viability, T/C [5] was 36.8% and the viability, T/C [6] was 29.4%. For the same molecule, the viability, T/C [7] was 102%, the viability, T/C [8] was 83.4% and the viability, T/C [9] was 89.6%. The viability, T/C [10] was 51.1%, the viability, T/C [11] was 39.9% and the viability, T/C [12] was 27.3%. The viability, T/C [13] was 93.2%, the viability, T/C [14] was 85.9% and the viability, T/C [15] was 64.5%. It also gave a viability, T/C [16] of 53.5%, a viability, T/C [17] of 39.3% and a viability, T/C [18] of 30.2%. For the same molecule, the viability, T/C [19] was 96.4%, the viability, T/C [20] was 83.6% and the viability, T/C [21] was 65.7%. It also gave a viability, T/C [22] of 50.1%, a viability, T/C [23] of 42.1% and a viability, T/C [24] of 33.6%. The viability, T/C [25] was 80.5%, the viability, T/C [26] was 96.1% and the viability, T/C [27] was 68.6%. It also gave a viability, T/C [28] of 49.5%, a viability, T/C [29] of 40.3% and a viability, T/C [30] of 32.2%. For the same molecule, the viability, T/C [31] was 84.6%, the viability, T/C [32] was 85.1% and the viability, T/C [33] was 78.5%. For the same molecule, the viability, T/C [34] was 50.8%, the viability, T/C [35] was 45.5% and the viability, T/C [36] was 27.2%.
